Source: ChEMBL document CHEMBL1130479, “7-O-acylpaclitaxel analogues: potential probes to map the paclitaxel binding site” (1997)

What was measured:
[1] = The activity to inhibit microtubule assembly, activity expressed as ED50 of compound/ ED50 of paclitaxel; format: functional
B16 = test: The cytotoxic activity was measured against B16 melanoma cells, activity expressed as ED50 of compound/ ED50 of paclitaxel; format: functional, Mus musculus

SMILES | Activity [1] | Cytotoxicity (B16)
CC(=O)O[C@H]1C(=O)[C@@]2(C)C([C@H](OC(=O)c3ccccc3)[C@]3(O)C[C@H](OC(=O)[C@H](O)[C@@H](NC(=O)c4ccccc4)c4ccccc4)C(C)=C1C3(C)C)[C@]1(OC(C)=O)CO[C@@H]1C[C@@H]2OC(=O)c1cccc(C(C)C)c1 (stereo not given in full) | > 32 | 
CC(=O)O[C@H]1C(=O)[C@]2(C)[C@@H](OC(=O)c3ccc(N=[N+]=[N-])cc3)C[C@H]3OC[C@@]3(OC(C)=O)[C@H]2[C@H](OC(=O)c2ccccc2)[C@]2(O)C[C@H](OC(=O)[C@H](O)[C@@H](NC(=O)c3ccccc3)c3ccccc3)C(C)=C1C2(C)C | 21 | 30
CC(=O)O[C@H]1C(=O)[C@]2(C)[C@@H](OC(=O)c3cc(N)cc([N+](=O)[O-])c3)C[C@H]3OC[C@@]3(OC(C)=O)[C@H]2[C@H](OC(=O)c2ccccc2)[C@]2(O)C[C@H](OC(=O)[C@H](O)[C@@H](NC(=O)c3ccccc3)c3ccccc3)C(C)=C1C2(C)C | 4.4 | 16
CC(=O)O[C@H]1C(=O)[C@]2(C)[C@@H](OC(=O)c3cc(N=[N+]=[N-])cc([N+](=O)[O-])c3)C[C@H]3OC[C@@]3(OC(C)=O)[C@H]2[C@H](OC(=O)c2ccccc2)[C@]2(O)C[C@H](OC(=O)[C@H](O)[C@@H](NC(=O)c3ccccc3)c3ccccc3)C(C)=C1C2(C)C | > 24 | 
CC(=O)O[C@H]1C(=O)[C@]2(C)[C@@H](OC(=O)CCl)C[C@H]3OC[C@@]3(OC(C)=O)[C@H]2[C@H](OC(=O)c2ccccc2)[C@]2(O)C[C@H](OC(=O)[C@H](O)[C@@H](NC(=O)c3ccccc3)c3ccccc3)C(C)=C1C2(C)C | 1.6 | 0.92
CC(=O)O[C@H]1C(=O)[C@]2(C)[C@@H](OC(=O)CI)C[C@H]3OC[C@@]3(OC(C)=O)[C@H]2[C@H](OC(=O)c2ccccc2)[C@]2(O)C[C@H](OC(=O)[C@H](O)[C@@H](NC(=O)c3ccccc3)c3ccccc3)C(C)=C1C2(C)C | 3.3 | 3.7
CC(=O)O[C@H]1C(=O)[C@@]2(C)[C@H]([C@H](OC(=O)c3ccccc3)[C@]3(O)C[C@H](OC(=O)[C@H](O)[C@@H](NC(=O)c4ccccc4)c4ccccc4)C(C)=C1C3(C)C)[C@]1(OC(C)=O)CO[C@@H]1C[C@@H]2O [PACLITAXEL] | 1 | 1
CC(=O)O[C@H]1C(=O)[C@]2(C)[C@@H](OC(=O)c3ccccc3)C[C@H]3OC[C@@]3(OC(C)=O)[C@H]2[C@H](OC(=O)c2ccccc2)[C@]2(O)C[C@H](OC(=O)[C@H](O)[C@@H](NC(=O)c3ccccc3)c3ccccc3)C(C)=C1C2(C)C [PACLITAXEL C7 BENZOIC ACID ESTER] | 4.1 | 9.7
CC(=O)O[C@H]1C(=O)[C@]2(C)[C@@H](OC(=O)c3cccc(N)c3)C[C@H]3OC[C@@]3(OC(C)=O)[C@H]2[C@H](OC(=O)c2ccccc2)[C@]2(O)C[C@H](OC(=O)[C@H](O)[C@@H](NC(=O)c3ccccc3)c3ccccc3)C(C)=C1C2(C)C | 1.5 | 7.1
CC(=O)O[C@H]1C(=O)[C@]2(C)[C@@H](OC(=O)c3cccc(N=[N+]=[N-])c3)C[C@H]3OC[C@@]3(OC(C)=O)[C@H]2[C@H](OC(=O)c2ccccc2)[C@]2(O)C[C@H](OC(=O)[C@H](O)[C@@H](NC(=O)c3ccccc3)c3ccccc3)C(C)=C1C2(C)C | > 24 | 
CC(=O)O[C@H]1C(=O)[C@]2(C)[C@@H](OC(=O)c3cccc(N(C)C)c3)C[C@H]3OC[C@@]3(OC(C)=O)[C@H]2[C@H](OC(=O)c2ccccc2)[C@]2(O)C[C@H](OC(=O)[C@H](O)[C@@H](NC(=O)c3ccccc3)c3ccccc3)C(C)=C1C2(C)C | 22 | 
CC(=O)O[C@H]1C(=O)[C@]2(C)[C@@H](OC(=O)c3ccc(N)cc3)C[C@H]3OC[C@@]3(OC(C)=O)[C@H]2[C@H](OC(=O)c2ccccc2)[C@]2(O)C[C@H](OC(=O)[C@H](O)[C@@H](NC(=O)c3ccccc3)c3ccccc3)C(C)=C1C2(C)C | 1.7 | 17
